Results on 1 molecule are retold here after patent EP3443980A1, “COMPOUND FOR THE TREATMENT OF PATIENTS WITH LEPTIN-RESISTANT OBESITY, BARDET-BIEDL SYNDROME AND OTHER CILIOPATHIES” (Ciliocure Limited, priority 2017, dated 2019).

What all share (format): in vivo
Assay [1] has as its system mice carrying the M390R mutation in the Bbs1 gene (Bbs1^M390R). Nature of the assay: Retinal degeneration (rod-cone dystrophy, retinal cell apoptosis) in Bbs1 M390R mice (Experiment 3). The following applies: the same mouse model for Bardet-Biedl syndrome. The method, then: Experiment 3: The purpose of the experiment is to study the effects of GLP-1 receptor agonists on • Development of rod-cone dystrophy in mice carrying the M390R mutation in the Bbs1 gene (Bbs1^M390R). In this particular experiment the GLP-1 receptor agonist used is acetyl-GLP-1(7-34)amide. The M390R mutation in the Bbs1 gene can also be found in human Bardet-Biedl syndrome.
Male Bbs1^M390R mice are used in the experiment. From postnatal day 6 to postnatal day 30 the experimental group is treated intraperitoneally with acetyl-GLP-1 (7-34)amide. Mice of the control group are treated during the same age period with vehicle.
Analysis of endpoints: comparison of control vs GLP-1 At the end of the treatment period, mice are investigated by use of electroretinography (ERG), optical coherence tomography (OCT) and histology.

Assay [2] has as its system leptin-resistant obese mice carrying the M390R mutation in the Bbs1 gene (Bbs1^M390R). As to the kind of experiment: Body weight and food intake of leptin-resistant obese Bbs1 M390R mice (Experiment 2). The following applies: mouse model for Bardet-Biedl syndrome with leptin resistance. The source says:
Experiment 2: The purpose of the experiment is to study the effects of GLP-1 receptor agonists on • body weight and food intake of leptin-resistant obese mice carrying the M390R mutation in the Bbs1 gene (Bbs1^M390R) and on • body weight and food intake of lean wild type littermate controls, both groups fed ad libitum. In this particular experiment the GLP-1 receptor agonist used is acetyl-GLP-1(7-34)amide. The M390R mutation in the Bbs1 gene can also be found in human Bardet-Biedl syndrome.
Male 12-16 weeks old mice are housed in individual cages for 3-5 days to acclimate to single housing conditions before baseline body weight and 24-hour food intake is determined during 4 days. Then food intake and body weight is tested in response to treatment with acetyl-GLP-1(7-34)amide. […]
During the treatment period, mice continue to have free access to food. […] At the end of the 7-day treatment period, body composition is determined in live mice using nuclear magnetic resonance (NMR) tomography. Mice are then sacrificed and the weight of various organs and tissues including various fat depots, liver, kidneys, heart, lung and brain are measured. […]

The subject of a further assay is BBS12^-/- mice. As to the kind of experiment: Apoptosis of photoreceptors in BBS12 model: retinal explants and BBS12-/- mice (Experiments 1a, 1b). The following applies: another mouse model for Bardet-Biedl syndrome. The protocol:
Experiment 1a: Effects of GLP-1 in ex-vivo model (retinal explants): In BBS12-deprived retinal explants and the Bbs12^/ murine model, impaired intraciliary transport results in protein retention in the endoplasmic reticulum. The protein overload activates a pro-apoptotic unfolded protein response leading to a specific Caspase12-mediated apoptosis of the photo-receptors. BBS12-deprived retinal explants are incubated with Ac-GLP-1 (7-34)amide and Caspase12-mediated apoptosis of the photo-receptors is compared to the apoptosis rate of BBS12-deprived retinal explants, which have been treated with the vehicle only.
• 15-day-old mice are sacrificed by decapitation, and the eyes are removed • First, the sclera is carefully removed, leaving the retinal pigmented epithelium attached to the eye ball. • Incisions are made at the edge of the cornea to remove cornea, lens, and hyaloid body. • Retinas are transferred, with retinal pigmented epithelium side down, to a culture membrane • Retina explants are maintained at 37 °C in a humidified 5% CO2 atmosphere. • Specific gene silencing with lentiviruses that carry a shRNA sequence for Bbs12 is performed. • Drugs are added to the culture medium […]

Each structure is given as a SMILES string.

In the case of `CC[C@H](C)[C@H](NC(=O)[C@H](Cc1ccccc1)NC(=O)[C@H](CCC(=O)O)NC(=O)[C@H](CCCCN)NC(=O)[C@H](C)NC(=O)[C@H](C)NC(=O)[C@H](CCC(N)=O)NC(=O)CNC(=O)[C@H](CCC(=O)O)NC(=O)[C@H](CC(C)C)NC(=O)[C@H](Cc1ccc(O)cc1)NC(=O)[C@H](CO)NC(=O)[C@H](CO)NC(=O)[C@@H](NC(=O)[C@H](CC(=O)O)NC(=O)[C@H](CO)NC(=O)[C@@H](NC(=O)[C@H](Cc1ccccc1)NC(=O)[C@@H](NC(=O)CNC(=O)[C@H](CCC(=O)O)NC(=O)[C@H](C)NC(=O)[C@H](Cc1c[nH]cn1)NC(C)=O)[C@@H](C)O)[C@@H](C)O)C(C)C)C(=O)N[C@@H](C)C(=O)N[C@@H](Cc1c[nH]c2ccccc12)C(=O)N[C@@H](CC(C)C)C(=O)N[C@H](C(=O)N[C@@H](CCCCN)C(N)=O)C(C)C` [Ac-GLP-1 (7-34)amide, N-acetyl-GLP-1(7-34)amide], the “apoptosis of retinal cells” value in assay [1] was “inhibits apoptosis of retinal cells”. In assay [2], the food intake result is reported as “inhibit food intake” and the weight loss entry is reported as “stimulate weight loss”. Moreover, the “apoptosis of retinal cells” value in the assay on BBS12^-/- mice is given as “inhibits apoptosis of retinal cells”.
